Measured values taken from US20090180969A1, “PHARMACEUTICAL FORMULATION COMPRISING AN ANTICHOLINERGIC DRUG” (Chiesi Farmaceutici S.p.A., priority 2008, published 2009).

Experiments:
[1] = tested on: acetylcholine (Ach)-induced increase in Penh (airway reactivity); assay: Bronchodilation activity: Ach-induced increase in Penh, barometric plethysmography; format: in vivo, guinea pig; conditions: for bronchoprotective effect: 24 hours
Procedure: Airway reactivity is measured using barometric plethysmography (Buxco, USA). Male guinea pigs (500-600 g) are individually placed in plexiglass chambers. After an acclimatisation period, animals are exposed to nebulised saline for 1 minute to obtain airway baseline reading. This is followed by a 1 minute challenge with nebulised acetylcholine (Ach)-2.5 mg/mL. After 60 minutes, 5 minute nebulisation of vehicle or the compound 1′ in the range 2.5-250 μM are applied and Ach challenge is then repeated after 2, 5, 24, 48 and 72 hours (h). Recording of pressure fluctuations in the chambers are taken for 5 minutes after each nebulisation and analysed to calculate Enhanced Pause (Penh). Airway reactivity is expressed as percentage increase in Penh compared with Penh values from the nebulisation of vehicle. […] After inhalation of […] of compound 1′, effect persists unchanged up to 48 hours (83.0±16.1%), while at 72 hours a residual activity of 34.8±20.9% is present.

[2] = Estimation of lung levels after nebulisation; format: in vivo; conditions: guinea pig, inhaled, nebulisation with submaximal bronchodilator activity, 2 hours after treatment, read-out: retained dose in the target organ (lung)

## O=C(C[N+]12CCC(CC1)[C@@H](OC(=O)N(Cc1cc(F)c(F)c(F)c1)c1cccc(F)c1)C2)c1cccs1.[Cl-] [compound 1′, (3R)-3-[[[(3-fluorophenyl)[(3,4,5-trifluorophenyl)methyl]amino]carbonyl]oxy]-1-[2-oxo-2-(2-thienyl)ethyl]-1-azoniabicyclo[2.2.2]octane chloride]
[1]; 25 μM inhalation
  bronchoprotective effect: 63.7±15.1%
[1]; 50 μM inhalation
  bronchoprotective effect: 87.1±8.7%
[1]; 50 μM inhalation, 48 h
  inhibition: 49.2±23.2%
[1]; 50 μM nebulised, 2 hours after end of nebulisation
  maximal effect, inhibition of Ach-induced increase in Penh: 99.6±0.4
[1]; 250 μM inhalation, 48 hours
  effect (inhibition of Ach-induced increase in Penh): 83.0±16.1%
[1]; 250 μM inhalation, 72 hours
  residual activity: 34.8±20.9%
[1]; inhalation of lower concentrations (below 25 μM)
  duration of effect: ≤ 5 h
[2]
  concentration at 2 h: ~50 ng/g
